Assay results taken from US10307413B2, “Tetrahydro- and dihydro-isoquinoline PRMT5 inhibitors and uses thereof” (Epizyme, Inc., priority 2013, dated 2019).
pEC50, pIC50: −log10 of the molar value. Where two headings read alike, the source gives them in different places.

What was measured:
PRMT5/MEP50 = PRMT5/MEP50 (Homo sapiens (Human), UniProt O14744); experiment: PRMT5 Biochemical Assay (PRMT5/MEP50 enzyme assay on peptide substrate, 3H-SAM Flashplate)
In short: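 Radiometric methylation of a biotin-tagged H4(1-15) peptide by human PRMT5/MEP50 from baculovirus/Sf9, with ³H-SAM incorporation read on streptavidin Flashplates. Buffer: Bicine pH 7.6, TCEP, BSG, Tween20; compound preincubated 30 min at 25 °C; stopped with 600 µM final unlabeled SAM. DMSO and SAH controls; IC50 from fitted % inhibition.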

Z-138 cell line = experiment: Z-138 Proliferation Assay (Cell Titer Glo, 5 days); type: cell-based; conditions: Homo sapiens, read-out: Proliferation EC50
In short: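 Viability via CellTiter-Glo luminescence (ATP) after 5-day incubation at 37 °C, 5% CO2. Compounds tested in triplicate, nine 3-fold steps, highest final concentration 20 μM in 0.2% DMSO; 50% inhibitory concentration by 4-parameter fit of normalized curves.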

[1] = tested on: symmetric di-methyl arginine in Z-138 cells; experiment: Z-138 Methylation Assay (In Cell Western for symmetric di-methyl arginine and DNA content); type: cell-based; conditions: Homo sapiens, read-out: ICW EC50
In short: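 In-cell western: symmetric di-methyl arginine signal ratioed to DRAQ5 DNA content after 96 h compound exposure of Z-138 cells seeded at 50,000 cells/mL.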

[2] = 120 h, Z-138 cells, 5 days, Cell Titer Glo

PRMT5/MEP50, sequence (O14744 other isoform, or with tags, fused parts or gaps): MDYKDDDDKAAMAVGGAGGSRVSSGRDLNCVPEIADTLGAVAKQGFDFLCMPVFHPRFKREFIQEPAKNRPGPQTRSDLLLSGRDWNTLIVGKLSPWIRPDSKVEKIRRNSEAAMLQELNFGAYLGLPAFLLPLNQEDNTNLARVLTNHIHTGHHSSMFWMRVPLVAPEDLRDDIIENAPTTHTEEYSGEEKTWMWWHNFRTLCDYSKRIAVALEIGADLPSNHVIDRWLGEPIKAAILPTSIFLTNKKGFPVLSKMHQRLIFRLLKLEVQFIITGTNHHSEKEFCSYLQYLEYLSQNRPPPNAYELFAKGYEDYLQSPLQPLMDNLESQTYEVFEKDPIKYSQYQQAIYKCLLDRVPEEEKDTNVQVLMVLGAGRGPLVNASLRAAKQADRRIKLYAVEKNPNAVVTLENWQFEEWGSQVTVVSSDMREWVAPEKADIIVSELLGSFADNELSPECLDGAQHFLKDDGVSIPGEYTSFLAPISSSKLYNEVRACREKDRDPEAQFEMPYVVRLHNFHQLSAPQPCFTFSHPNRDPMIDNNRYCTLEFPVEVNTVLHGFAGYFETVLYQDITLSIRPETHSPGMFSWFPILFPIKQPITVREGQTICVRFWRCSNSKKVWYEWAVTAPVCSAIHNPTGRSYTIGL
PRMT5/MEP50, sequence (Q9BQA1 other isoform, or with tags, fused parts or gaps partner): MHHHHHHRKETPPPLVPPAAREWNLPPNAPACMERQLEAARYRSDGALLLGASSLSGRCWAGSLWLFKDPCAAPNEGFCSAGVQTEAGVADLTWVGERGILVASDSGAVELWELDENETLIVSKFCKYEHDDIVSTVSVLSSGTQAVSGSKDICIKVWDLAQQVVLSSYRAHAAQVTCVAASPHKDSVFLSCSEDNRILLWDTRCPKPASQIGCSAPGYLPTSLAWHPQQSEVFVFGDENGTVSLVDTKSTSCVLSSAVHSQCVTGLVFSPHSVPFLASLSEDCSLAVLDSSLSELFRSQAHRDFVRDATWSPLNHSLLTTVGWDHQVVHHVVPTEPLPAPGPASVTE

pIC50 (PRMT5/MEP50) | pEC50 [1] | pIC50 (PRMT5/MEP50; PRMT5 biochemical assay) | pEC50 ([1]; In Cell Western methylation) | Structure (SMILES) | pEC50 (Z-138 cell line; 120 h, Z-138 cells, 5 days) | pEC50 (Z-138 cell line; [2]) | pEC50 (Z-138 cell line; Z-138, 120 h)
> 7.00 | > 7.00 | – | – | Cn1ccc(Nc2cc(C(=O)NC[C@H](O)CN3CCc4ccccc4C3)ccn2)n1 [Compound 342] | 5.00 to 6.00 | – | –
– | – | > 7.00 | > 7.00 | O=C(NC[C@H](O)CN1CCc2ccccc2C1)c1cc(NC2CCN(C(=O)C3CCC3)CC2)ncn1 [Compound 419] | – | > 7.00 | –
– | – | > 7.00 | > 7.00 | CCCC(=O)N1CCC(Nc2cc(C(=O)NC[C@H](O)CN3CCc4ccccc4C3)ccn2)CC1 [Compound 468] | – | > 7.00 | –
6.00 to 7.00 | < 6.00 | – | – | Cc1cnc(NC2CN(CC(F)(F)F)C2)cc1C(=O)NC[C@H](O)CN1CCc2ccccc2C1 [Compound 356] | < 4.70 | – | –
6.00 to 7.00 | > 7.00 | – | – | COCCNc1cc(C(=O)NC[C@H](O)CN2CCc3ccccc3C2)ncn1 [Compound 352] | 5.00 to 6.00 | – | –
– | – | > 7.00 | > 7.00 | O=C(NC[C@H](O)CN1CCc2ccccc2C1)c1cc(NC2CCN(C(=O)C3CC3)CC2)ncn1 [Compound 418] | – | > 7.00 | –
– | – | > 7.00 | 6.00 to 7.00 | CCN(C)[C@H]1CC[C@@H](Nc2cc(C(=O)NC[C@H](O)CN3CCc4ccccc4C3)ncn2)CC1 [Compound 631] | – | < 5.30 | –
– | – | > 7.00 | > 7.00 | CO[C@H]1CC[C@H](Nc2cc(C(=O)NC[C@H](O)CN3CCc4ccccc4C3)ncn2)CC1 [Compound 586] | – | > 7.00 | –
> 7.00 | > 7.00 | – | – | CN(C)CCCOc1ccc(C(=O)NC[C@H](O)CN2CCc3ccccc3C2)cc1 [Compound 345] | 6.00 to 7.00 | – | –
– | – | > 7.00 | > 7.00 | CCc1nc(NC2COC2)cc(C(=O)NC[C@H](O)CN2CCc3ccccc3C2)n1 [Compound 452] | – | 6.00 to 7.00 | –
– | – | > 7.00 | > 7.00 | CC(=O)N1CCC(Nc2cc(C(=O)NC[C@H](O)CN3CCc4ccccc4C3)cc(N3CCOCC3)n2)CC1 [Compound 611] | – | > 7.00 | –
– | – | > 7.00 | > 7.00 | CCC(=O)N1CCN(c2nc(NC3CNC3)cc(C(=O)NC[C@H](O)CN3CCc4ccccc4C3)n2)CC1 [Compound 484] | – | 5.00 to 6.00 | –
> 7.00 | > 7.00 | – | – | CN(C)CCOc1ccc(C(=O)NC[C@H](O)CN2CCc3ccccc3C2)cc1 [Compound 384] | 5.00 to 6.00 | – | –
6.00 to 7.00 | 6.00 to 7.00 | – | – | O=C(NCC(O)CN1CCc2ccccc2C1)c1ccccn1 (stereo not drawn) [Compound 17, N-(3-(3,4-dihydroisoquinolin-2(1H)-yl)-2-hydroxypropyl)picolinamide] | < 4.70 | – | –
– | – | > 7.00 | > 7.00 | O=C(NC[C@H](O)CN1CCc2ccccc2C1)c1ncnc(NC2COC2)c1F [Compound 422] | – | 5.00 to 6.00 | –
6.00 to 7.00 | > 7.00 | – | – | CN(C[C@H](O)CN1CCc2ccccc2C1)C(=O)c1ccnc(NC2CCOCC2)c1 [Compound 357] | 5.00 to 6.00 | – | –
– | – | > 7.00 | > 7.00 | O=C(NC[C@H](O)CN1CCc2ccccc2C1)c1cc(N[C@H]2C[C@@H](C(=O)N3CCC3)C2)ncn1 [Compound 517] | – | 6.00 to 7.00 | –
– | – | > 7.00 | > 7.00 | CN(C)C(=O)[C@H]1CC[C@H](Nc2cc(C(=O)NC[C@H](O)CN3CCc4ccccc4C3)ncn2)CC1 [Compound 587] | – | > 7.00 | –
– | – | > 7.00 | 6.00 to 7.00 | CNCCN(C)c1nc(NC2CNC2)cc(C(=O)NC[C@H](O)CN2CCc3ccccc3C2)n1 [Compound 482] | – | 5.00 to 6.00 | –
– | – | 6.00 to 7.00 | 6.00 to 7.00 | Cc1ccc2c(c1)CCN(C[C@@H](O)CNC(=O)c1cc(NC3COC3)ncn1)C2 [Compound 681] | – | < 5.30 | –
– | – | > 7.00 | > 7.00 | CC(=O)N1CCC(Nc2cc(C(=O)NC[C@H](O)CN3CCc4ccccc4C3)cc(N3CCN(C(C)=O)CC3)n2)CC1 [Compound 613] | – | 6.00 to 7.00 | –
– | – | > 7.00 | > 7.00 | O=C(NC[C@H](O)CN1CCc2ccccc2C1)c1ccnc(OCCNCC(F)(F)F)c1 [Compound 421] | – | 5.00 to 6.00 | –
– | – | > 7.00 | > 7.00 | COCCN(CCOC)[C@H]1C[C@@H](Nc2cc(C(=O)NC[C@H](O)CN3CCc4ccccc4C3)ncn2)C1 [Compound 562] | – | 6.00 to 7.00 | –
– | – | > 7.00 | > 7.00 | O=C(NC[C@H](O)CN1CCc2ccccc2C1)c1cc(NC2COC2)nc(N2CCN(C(=O)C3CC3)CC2)n1 [Compound 498] | – | > 7.00 | –

pIC50 (PRMT5/MEP50) | pEC50 [1] | pIC50 (PRMT5/MEP50; PRMT5 biochemical assay) | pEC50 ([1]; In Cell Western methylation) | Structure (SMILES) | pEC50 (Z-138 cell line; 120 h, Z-138 cells, 5 days) | pEC50 (Z-138 cell line; [2]) | pEC50 (Z-138 cell line; Z-138, 120 h)
– | – | 5.00 to 6.00 | < 6.00 | CC1(C)c2ccccc2CCN1C[C@@H](O)CNC(=O)c1cc(NC2COC2)ncn1 [Compound 588] | – | < 5.30 | –
– | – | > 7.00 | 6.00 to 7.00 | O=C(NC[C@H](O)CN1CCc2ccccc2C1)c1cc(NC2CCNCC2)ccn1 [Compound 549] | – | < 5.30 | –
– | – | > 7.00 | > 7.00 | CC(=O)N1CCC(Nc2cc(C(=O)NC[C@H](O)CN3CCc4c(C)cccc4C3)ccn2)CC1 [Compound 670] | – | 6.00 to 7.00 | –
– | – | > 7.00 | 6.00 to 7.00 | CC(C)N1CCN(c2nc(NC3CNC3)cc(C(=O)NC[C@H](O)CN3CCc4ccccc4C3)n2)CC1 [Compound 500] | – | 4.30 to 5.00 | –
– | – | 6.00 to 7.00 | 6.00 to 7.00 | Cc1cccc2c1CCN(C[C@@H](O)CNC(=O)c1cc(NC3COC3)ncn1)C2 [Compound 683] | – | < 5.30 | –
– | – | > 7.00 | 6.00 to 7.00 | CS(=O)(=O)CCN1CC(Nc2cc(C(=O)NC[C@H](O)CN3CCc4ccccc4C3)ncn2)C1 [Compound 580] | – | < 5.30 | –
– | – | 5.00 to 6.00 | < 6.00 | CC(C(O)CNC(=O)c1cc(NC2COC2)ncn1)N1CCc2ccccc2C1 (stereo not drawn) [Compound 607] | – | < 5.30 | –
– | – | > 7.00 | > 7.00 | O=C(NC[C@H](O)CN1CCc2ccccc2C1)c1cc(NC2COC2)nc(N2CCCCC2)n1 [Compound 414] | – | > 7.00 | –
6.00 to 7.00 | 6.00 to 7.00 | – | – | NS(=O)(=O)c1cccc(C(=O)NCC(O)CN2CCc3ccccc3C2)c1 (stereo not drawn) [Compound 32] | < 4.70 | – | –
– | – | 5.00 to 6.00 | < 6.00 | CC(O)(CNC(=O)c1cc(NC2CCNCC2)ncn1)CN1CCc2ccccc2C1 (stereo not drawn) [Compound 647] | – | < 5.30 | –
6.00 to 7.00 | > 7.00 | – | – | CNCCOc1ccc2cc(C(=O)NC[C@H](O)CN3CCc4ccccc4C3)ccc2c1 [Compound 361] | 5.00 to 6.00 | – | –
– | – | > 7.00 | 6.00 to 7.00 | Cc1c(NC2COC2)ncnc1C(=O)NC[C@H](O)CN1CCc2ccccc2C1 [Compound 604] | – | 5.00 to 6.00 | –
– | – | > 7.00 | > 7.00 | CC(C)(O)CN1CCC(Nc2cc(C(=O)NC[C@H](O)CN3CCc4ccccc4C3)ncn2)CC1 [Compound 579] | – | 6.00 to 7.00 | –
– | – | > 7.00 | > 7.00 | CC(=O)N1CC(Nc2cc(C(=O)NC[C@H](O)CN3CCc4ccccc4C3)nc(C(C)C)n2)C1 [Compound 457] | – | > 7.00 | –
> 7.00 | > 7.00 | – | – | O=C(NC[C@H](O)CN1CCc2ccccc2C1)c1ccnc(OC2CCC2)c1 [Compound 350] | 6.00 to 7.00 | – | –
– | – | 6.00 to 7.00 | 6.00 to 7.00 | CC(=O)N1CC(Nc2cc(C(=O)NC[C@H](O)CN3CCc4ccccc4C3(C)C)ncn2)C1 [Compound 605] | – | < 5.30 | –
– | – | > 7.00 | > 7.00 | COCCN(CCOC)[C@H]1C[C@H](Nc2cc(C(=O)NC[C@H](O)CN3CCc4ccccc4C3)ncn2)C1 [Compound 561] | – | 6.00 to 7.00 | –
– | – | > 7.00 | > 7.00 | CC(=O)N1CC(Nc2cc(C(=O)NC[C@H](O)CN3CCc4ccccc4C3)nc(N3CCN(C)CC3)n2)C1 [Compound 442] | – | 6.00 to 7.00 | –
– | – | > 7.00 | > 7.00 | O=C(NC[C@H](O)CN1CCc2ccccc2C1)c1cc(N[C@H]2C[C@@H](N3CCOCC3)C2)ncn1 [Compound 637] | – | 6.00 to 7.00 | –
– | – | > 7.00 | > 7.00 | Cc1cc(Nc2cc(C(=O)NC[C@H](O)CN3CCc4ccccc4C3)ncn2)n[nH]1 [Compound 432] | – | 5.00 to 6.00 | –
– | – | > 7.00 | > 7.00 | CC(C)c1nc(NC2COC2)cc(C(=O)NC[C@H](O)CN2CCc3ccccc3C2)n1 [Compound 449] | – | 6.00 to 7.00 | –
– | – | > 7.00 | > 7.00 | CCC(=O)N1CCC(Nc2cc(C(=O)NC[C@H](O)CN3CCc4ccccc4C3)ncn2)CC1 [Compound 406] | – | > 7.00 | –
– | – | > 7.00 | > 7.00 | C[C@@H](N1CC(Nc2cc(C(=O)NC[C@H](O)CN3CCc4ccccc4C3)ncn2)C1)C(F)(F)F [Compound 446] | – | 5.00 to 6.00 | –
– | – | 6.00 to 7.00 | 6.00 to 7.00 | CC(=O)N1CCC(Nc2cc(C(=O)NCC(O)C(C)N3CCc4ccccc4C3)ccn2)CC1 (stereo not drawn) [Compound 692] | – | < 5.30 | –

Structure (SMILES) | pIC50 (PRMT5/MEP50) | pEC50 [1] | pIC50 (PRMT5/MEP50; PRMT5 biochemical assay) | pEC50 ([1]; In Cell Western methylation) | pEC50 (Z-138 cell line; 120 h, Z-138 cells, 5 days) | pEC50 (Z-138 cell line; [2]) | pEC50 (Z-138 cell line; Z-138, 120 h)
NC(=O)c1cccc(C(=O)NCC(O)CN2CCc3ccccc3C2)c1 (stereo not drawn) [Compound 25] | 6.00 to 7.00 | 5.00 to 6.00 | – | – | < 4.70 | – | –
CC(=O)N1CCC(Nc2cc(C(=O)NCC(F)CN3CCc4ccccc4C3)ccn2)CC1 (stereo not drawn) [Compound 698] | – | – | > 7.00 | > 7.00 | – | – | 5.00 to 6.00
